Patent US11129831B2, “Identification of agents displaying functional activation of dopamine D2 and D4 receptors” (Florida A&M University, priority 2017, dated 2021)

How the values were obtained:
[1] = system: other four DA receptor subtypes; experiment: Binding to the other DA receptor subtypes; details: result in words
[2] = system: apomorphine (APO)-induced climbing behavior; details: for mice exhibiting inhibition of climbing: at higher dosages of each agent
catalepsy = experiment: Catalepsy bar test
D2R [3] = biological target: T1, D2R (Homo sapiens, UniProt P14416); experiment: cell-based; assay type: cell-based; details: for Emax: normalized to vehicle (0%) and quinpirole (100%), read-out: β-Arrestin Emax; for recruitment of β-arrestin-2 to the D2R: result in words
T1 sequence (P14416 whole entry): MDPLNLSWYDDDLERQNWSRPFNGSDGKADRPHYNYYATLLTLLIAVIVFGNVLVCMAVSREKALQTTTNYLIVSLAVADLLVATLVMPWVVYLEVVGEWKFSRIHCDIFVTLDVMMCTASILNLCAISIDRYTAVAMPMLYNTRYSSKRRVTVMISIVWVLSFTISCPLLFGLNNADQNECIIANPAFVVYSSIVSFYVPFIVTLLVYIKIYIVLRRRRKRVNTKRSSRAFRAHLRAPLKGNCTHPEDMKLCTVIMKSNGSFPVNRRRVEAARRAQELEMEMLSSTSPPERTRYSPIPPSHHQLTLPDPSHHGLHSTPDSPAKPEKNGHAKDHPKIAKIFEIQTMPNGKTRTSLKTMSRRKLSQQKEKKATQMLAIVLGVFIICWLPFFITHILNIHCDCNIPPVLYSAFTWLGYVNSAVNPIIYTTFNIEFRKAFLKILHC

D2R [4] = biological target: T1, D2R; assay type: binding
righting reflex = experiment: Righting test (sedation); assay type: in vivo; details: rats, following CLP and bar tests
[5] = Pharmacokinetics, plasma and brain levels by HPLC-PDA; details: for half-life: t1/2, elimination

Br.Br.Br.c1cnc(N2CCN(CCCc3nc4ccccc4s3)CC2)nc1 [Compound 28, 2-(3-(4-(Pyrimidin-2-yl)piperazin-1-yl)propyl)benzo[d]thiazole trihydrobromide]
binding affinity to the other four DA receptor subtypes [1]: little or no binding affinity

O=C(CCCN1CCC(O)(c2ccc(Cl)cc2)CC1)c1ccc(F)cc1 [haloperidol]
mice exhibiting inhibition of climbing [2]: ~100%
antipsychotic activity in animal models of schizophrenia (FIG. 10A) ([2]; result in words): dose-dependent antipsychotic activity
catalepsy at 6×ED50 (FIG. 10B) (catalepsy; 6×ED50 values, result in words): significant catalepsy

Fc1ccc(CCCCN2CCN(c3ccc(Cl)cc3)CC2)cc1 [SYA16267]
Emax (D2R [3]): 5.1%
recruitment of β-arrestin-2 to the D2R (D2R [3]): significant loss of the ability
EC50 (D2R [3]; β-arrestin-2 recruitment to D2R): 248 nM
Ki (D2R [4]): 284 ± 21 nM

Fc1ccc(OCCCN2CCN(c3ccccn3)CC2)cc1 [SYA16264]
Emax (D2R [3]): 75.7%
mean time on bar (catalepsy; male, Sprague-Dawley, rat, in vivo, 60 min): < 20 s
righting after catalepsy testing (righting reflex): All rats righted themselves

Fc1ccc(CCCCN2CCN(c3ncccn3)CC2)cc1 [SYA16268]
Emax (D2R [3]): 71.9%

Fc1ccc(CCCCN2CCN(c3ccccn3)CC2)cc1 [SYA16263]
recruitment of β-arrestin-2 to the D2R (D2R [3]): promotes D2-mediated β-arrestin-2 translocation
mice exhibiting inhibition of climbing [2]: ~100%
AUC0-t ([5]; brain, rats, ip 50 mg/kg): 86 μg · h/(mL or g)
tmax ([5]; brain, rats, ip 50 mg/kg): 10 min
AUC0-t ([5]; plasma, rats, ip 50 mg/kg): 5.4 μg · h/(mL or g)
Cplasma ([5]; plasma, rats, ip 50 mg/kg, used for BB): 5.23
Cmax ([5]; rat, in vivo, ip, 50 mg/kg): 63500 ng/g
tmax ([5]; rat, in vivo, ip, 50 mg/kg): 10.2 min
Kp at 10 min ([5]; rat, in vivo, ip, 50 mg/kg, BB=Cbrain/Cplasma, rats, ip 50 mg/kg, at ~equilibrium point): 12.1
half-life ([5]; rat, in vivo, ip, 50 mg/kg, brain, rats, ip 50 mg/kg): 174 to 186 min
half-life ([5]; rat, in vivo, ip, 50 mg/kg, plasma, rats, ip 50 mg/kg): 44.4 to 58.8 min
Log BB ([5]; rats, ip 50 mg/kg): 1.08
brain concentration at 24-hour point ([5]; rats, ip 50.0 mg/kg, 24 h): near or below the detection limit
plasma concentration at 24-hour point ([5]; rats, ip 50.0 mg/kg, 24 h): below the detection limit
mean time on bar (catalepsy; rats, up to 239 μmole/kg (75 mg/kg), 19×ED50apom, no catalepsy): < 20 s
righting after catalepsy testing (righting reflex): all rats were observed to right themselves
